Each structure is given as a SMILES string.

The logD is the decadic logarithm of the distribution of all forms, ionised or not, between an organic phase and buffer at a given pH. Low values mean a more hydrophilic compound, high ones a more lipophilic compound.

The nature of the series: method code SF, from DOI: 10.1016/0360-3016(89)90899-7, PMID: 2703405. The conditions noted are these: pH 7.4.
`C=CCOc1ccc2c(c1)[n+]([O-])nc(N)[n+]2[O-]` yielded a logD of 0.76. For `CC(=O)Nc1n[n+]([O-])c2cc(C)ccc2[n+]1[O-]`, the logD is -0.4. As for `COc1ccc2c(c1)[n+]([O-])c(N)n[n+]2[O-]`, the figure is 0.

`Cc1ccc2c(c1)[n+]([O-])nc(N)[n+]2[O-]` displayed a logD of 0.2. As for `Nc1n[n+]([O-])c2cc(OCC(O)CO)ccc2[n+]1[O-]` (stereo unspecified), the figure is -1.1; as for `COc1n[n+]([O-])c2ccccc2[n+]1[O-]`, -0.3; as for `CC(=O)Nc1n[n+]([O-])c2ccccc2[n+]1[O-]`, -0.6. `Nc1n[n+]([O-])c2ccc(Cl)cc2[n+]1[O-]` had a logD of 0.41.

On to `Nc1n[n+]([O-])c2ccccc2[n+]1[O-]`, for which the logD was -0.3. Regarding `CC(=O)CC(=O)Nc1n[n+]([O-])c2ccccc2[n+]1[O-]`, the logD was -1.4. The figure for `[O-][n+]1cn[n+]([O-])c2ccccc21` is -0.8.
